Assay results as given in article PMC5503534, “Stable aneuploid tumors cells are more sensitive to TTK inhibition than chromosomally unstable cell lines” (Oncotarget, 2017).
Where two headings read alike, the source gives them in different places.

What was measured:
[1] = tested on: post-tetraploid HPT4 cells; assay: Cell proliferation assay, post-tetraploid HPT4; type: cell-based, human; conditions: HPT4, five days
Procedure: (§1) Cancer cell lines and hTERT-RPE1 retinal pigment epithelial cells were purchased from the American Type Culture Collection (ATCC) (Manassas, VA, U.S.A.) from 2011 to 2014 [41] and cultured in ATCC-recommended media. All experiments were carried out within nine passages of the original vials from ATCC who authenticated the cancer cell lines by short tandem repeat analysis. We verified the mutant status of seven frequently mutated cancer genes (i.e., BRAF, CDKN2A, CTNNB1, EGFR, KRAS, PIK3CA and TP53) by full exome or targeted sequencing. Sequencing results were compared to COSMIC version 75 of the Genomics of Drug Sensitivity in Cancer data base and provided additional authentication of the identity of the cell lines. The isolation and characterization of post-tetraploid clones from HCT 116 has been described previously. The mutation status of the CDKN2A, CTNNB1, KRAS and PIK3CA genes were confirmed by sequence analysis in both the HCT 116 parental cell line and post-tetraploid clones. All experiments were carried out within nine passages of the original cell stocks that were transferred from the Max Planck Institute of Biochemistry (Martinsried, Germany) to Netherlands Translational Research Center.
(§2) Cell proliferation assays were carried out as described using ATPlite 1step™ (Perkin Elmer, Groningen, The Netherlands). Exposure time was 72 or 120 hours as indicated in the Legends to the Figures. Percentage growth was calculated, relative to the growth of unexposed cells, and relative IC50s were fitted using a four-parameter logistics curve (XLfit 5.3, IDBS). For Figure 4A and 7 dose response curves were redrawn in Prism. To compare the inhibitory potency of compounds in proliferation assays with HCT 116 parental and tetraploid clones, pIC50 (−^10logIC50) values were compared in three independent experiments. A two-tailed Student's t-test was performed to determine whether differences in sensitivity (ΔpIC50) were statistically significant. Caspase 3/7 activity of cancer cells was measured using Caspase-Glo 3/7 Assay kit (cat no. G8093, Promega, Madison USA). Viability of T-ALL cell samples was determined using ATPlite and exposure of 72 hours as described previously.

[2] = tested on: caspase 3/7 in HCT 116, HPT1, HPT2 and HPT4 cells; assay: Caspase 3/7 activity assay; type: cell-based, human; conditions: 316 nM, three days, parental line and HPT1, HPT2, HPT4
Procedure: as §2

[3] = tested on: HCT 116 colon carcinoma cell line; conditions: three day cell proliferation assay; cited from earlier work
[4] = tested on: LoVo colorectal adenocarcinoma cell line; conditions: three day cell proliferation assay; cited from earlier work
[5] = tested on: post-tetraploid HPT1 cells; assay: Cell proliferation assay, post-tetraploid HPT1; type: cell-based, human; conditions: HPT1, five days
Procedure: as §1, §2

[6] = tested on: patient-derived colorectal carcinoma organoids; assay: Organoids drug sensitivity and viability assay; type: cell-based, human
Procedure: The establishment and characterization of the human colon cancer organoids has been described. The organoids were cultured in drops of Geltrex LDEV-Free Reduced Growth Factor Basement Membrane Matrix (Gibco, cat no. A1413202) in DMEM/F12 medium (Thermo), supplemented with 1% (v/v) penicillin/streptomycin (Gibco), 1% Hepes buffer, pH7.5, 1% L-glutamine (Gibco), 1 μg/mL R-spondin (Sigma), 100 ng/mL Noggin (Peprotech), B27 vitamin A-free (Invitrogen, cat no. 12587010), 1 mM n-acetyl cysteine (Sigma), 10 mM nicotinamide (Sigma), 50 ng/mL EGF (BD Biosciences), 500 nM A83-01 (Tocris), 10 μM SB202190 (Sigma), 10 μM Y-27632 (Sigma) and 10 nM Prostaglandin E2 (Cayman). Medium was refreshed every four days and organoids were splitted by treatment with TryPLE Express (Gibco, cat. no. 12604013).
Organoids were dissociated by TryPLE Express treatment and filtered using a 40 μm nylon cell strainer (Falcon). The organoids were re-suspended in Geltrex at a density of 250,000 cells/mL and seeded in the wells of 96-well plates (Corning, cat no. 3903) at 10 μl per well. Compounds were added four days after plating and 72 hours later viability was determined using Cell-Titer Glo 3D Cell Viability Assay (Promega, Madison USA). Experiments were performed in three biological replicates and technical triplicates were averaged per experiment.

[7] = tested on: HCT 116 vs HPT1, -2 and -4; assay: Drug sensitivity analysis, HCT116 diploid versus tetraploids; type: cell-based, human
Procedure: as §2

[8] = tested on: MG-63 osteosarcoma cell line; conditions: three day cell proliferation assay; cited from earlier work
[9] = toxicity studies in mice; cited from earlier work
[10] = tested on: HCT 116 colon carcinoma cell line; assay: Cell proliferation assay (ATPlite), HCT 116; type: cell-based, human
Procedure: as §2

[11] = tested on: A-172 glioblastoma cell line; assay: Cell proliferation assay (ATPlite), A-172; type: cell-based, human; conditions: 5 day proliferation assay
Procedure: as §2

[12] = tested on: 66 cancer cell lines (44 cell lines); design: method as in earlier work; conditions: cited from earlier work
[13] = tested on: LoVo colorectal adenocarcinoma cell line; assay: Cell proliferation assay (ATPlite), LoVo; type: cell-based, human; conditions: 5 day proliferation assay
Procedure: as §2

[14] = geometric average of three experiments

For `CCc1cccc(CC)c1NC(=O)c1ccn2c1CCc1cnc(Nc3ccc(N4CCN(C)CC4)cc3OC)nc1-2` [NTRC 0066-0], the “Efficacy (%)” value ([1]; average of three experiments) was 48%, the IC50 [1, 14] was 44 nM and the “caspase 3/7 activity” value [2] was “induced caspase 3/7 activity”. For the same compound, the IC50 [3] was 37 nM, the IC50 [4] was 40 nM and the “Efficacy (%)” value ([5]; average of three experiments) was 59%. It also gave an IC50 [5, 14] of 40 nM, a ΔpIC50 ([6]; All organoids, NTRC 0066-0 vs reversine) of 1.17 and a pIC50 ([6]; All organoids, geometric average) of 7.59. The ΔpIC50 ([6]; organoid p14, NTRC 0066-0 vs reversine) was 1.34, the pIC50 ([6]; organoid p14, three days) was 7.65 and the IC50 ([6]; organoid p14, three days, read-out: IC50) was 22.5 nM. The pIC50 ([6]; organoid p18, three days) was 7.68, the IC50 ([6]; organoid p18, three days, read-out: IC50) was 22.1 nM and the ΔpIC50 ([6]; organoid p28, NTRC 0066-0 vs reversine) was 1.22. The pIC50 ([6]; organoid p28, three days) was 7.43, the IC50 ([6]; organoid p28, three days, read-out: IC50) was 37 nM and the “times more potent than reversine” value ([6]; organoids) was 10 times. For the same compound, the IC50 ([6]; organoids from three different patients, read-out: average IC50) was 27 nM, the “Δeff. (%)” value ([7]; HCT 116 vs HPT1, -2 and -4) was −33% and the “Phenotype (efficacy)” value ([7]; HCT 116 vs HPT1, -2 and -4, based on % effect) was “resistant”. For the same compound, the “Phenotype (potency)” value ([7]; HCT 116 vs HPT1, -2 and -4, 'resistant' indicates that tetraploids are resistant) was “sensitive”, the ΔpIC50 ([7]; average log shift in sensitivity between parental and tetraploids) was −0.01 and the IC50 [8] was 135 nM. The “effect on bone marrow or blood cell count (hematological toxicity)” value [9] was “no effect on bone marrow or blood cell count”, the IC50 ([10]; 5 day proliferation assay, HCT 116 (Suppl. Table 1)) was 41 nM and the “Eff. (%)” value ([10]; HCT 116, five days, maximum inhibitory effect, average of three experiments) was 80%. The IC50 ([10]; HCT 116 near-diploid, five days, geometric average of three experiments (Suppl. Table 2A)) was 44 nM, the IC50 [11] was 34 nM and the IC50 ([12]; 3 days, geometric average in 44 cell lines) was 67 nM. The IC50 ([12]; 5 days, geometric average in 66 cancer cell lines) was 98 nM and the IC50 [13] was 35 nM.
